Like-named read-outs stand apart in the source and are kept apart here.
Assays:
human PDE2A1 = human PDE2A1 (Homo sapiens (Human), UniProt O00408); test: PDE selectivity IMAP FP assay, human PDE2A1; format: biochemical; conditions: Human PDE2
In short: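 IMAP fluorescence polarization assay; PDE2 substrate 50 nM FAM-cAMP containing 1000 nM cGMP, enzyme diluted for 20% substrate conversion, in 10 mM Tris HCl pH 7.2, 10 mM MgCl2, 1 mM DTT. Reaction 60 min at room temperature, stopped with IMAP binding solution; polarization read after 1 h. Ki reported.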

Rhesus PDE2A3 = Rhesus PDE2A3 (Macaca mulatta, UniProt B3VTJ2); test: PDE2 fluorescence polarization (IMAP FP) assay, rhesus PDE2A3; format: biochemical, rhesus macaque
Sequence of Rhesus PDE2A3 (B3VTJ2 1-941): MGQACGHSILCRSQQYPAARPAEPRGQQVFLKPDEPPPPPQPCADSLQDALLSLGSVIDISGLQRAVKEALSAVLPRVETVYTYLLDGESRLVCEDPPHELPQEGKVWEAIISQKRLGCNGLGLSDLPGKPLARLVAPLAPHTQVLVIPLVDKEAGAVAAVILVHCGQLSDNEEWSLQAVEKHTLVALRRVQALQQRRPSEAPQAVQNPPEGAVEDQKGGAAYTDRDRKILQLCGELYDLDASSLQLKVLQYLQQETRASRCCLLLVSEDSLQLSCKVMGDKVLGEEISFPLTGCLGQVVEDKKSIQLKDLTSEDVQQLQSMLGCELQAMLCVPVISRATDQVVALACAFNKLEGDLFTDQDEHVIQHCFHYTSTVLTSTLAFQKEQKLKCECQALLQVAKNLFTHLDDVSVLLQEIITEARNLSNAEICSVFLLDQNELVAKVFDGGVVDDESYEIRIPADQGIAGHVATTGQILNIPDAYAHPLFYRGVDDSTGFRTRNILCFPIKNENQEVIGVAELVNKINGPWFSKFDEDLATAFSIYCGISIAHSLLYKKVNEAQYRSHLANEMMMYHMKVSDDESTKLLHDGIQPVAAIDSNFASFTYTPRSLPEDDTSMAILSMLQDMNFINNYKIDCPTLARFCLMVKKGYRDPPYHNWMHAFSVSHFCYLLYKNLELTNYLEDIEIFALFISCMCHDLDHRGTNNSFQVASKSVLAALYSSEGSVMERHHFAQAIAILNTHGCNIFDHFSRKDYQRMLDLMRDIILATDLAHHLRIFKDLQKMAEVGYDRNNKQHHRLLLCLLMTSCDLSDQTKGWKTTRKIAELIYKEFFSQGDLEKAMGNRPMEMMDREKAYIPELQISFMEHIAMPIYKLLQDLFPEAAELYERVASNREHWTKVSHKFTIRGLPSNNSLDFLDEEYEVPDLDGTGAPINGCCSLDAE

[1] = Lab A, read-out: Human PDE2 Ki (nM) Lab A
[2] = Lab B, read-out: Human PDE2 Ki (nM) Lab B
[3] = Lab A, read-out: Rhesus PDE2 Ki (nM) Lab A
[4] = Lab B, read-out: Rhesus PDE2 Ki (nM) Lab B

Sequence of human PDE2A1 (O00408 other isoform, or with tags, fused parts or gaps): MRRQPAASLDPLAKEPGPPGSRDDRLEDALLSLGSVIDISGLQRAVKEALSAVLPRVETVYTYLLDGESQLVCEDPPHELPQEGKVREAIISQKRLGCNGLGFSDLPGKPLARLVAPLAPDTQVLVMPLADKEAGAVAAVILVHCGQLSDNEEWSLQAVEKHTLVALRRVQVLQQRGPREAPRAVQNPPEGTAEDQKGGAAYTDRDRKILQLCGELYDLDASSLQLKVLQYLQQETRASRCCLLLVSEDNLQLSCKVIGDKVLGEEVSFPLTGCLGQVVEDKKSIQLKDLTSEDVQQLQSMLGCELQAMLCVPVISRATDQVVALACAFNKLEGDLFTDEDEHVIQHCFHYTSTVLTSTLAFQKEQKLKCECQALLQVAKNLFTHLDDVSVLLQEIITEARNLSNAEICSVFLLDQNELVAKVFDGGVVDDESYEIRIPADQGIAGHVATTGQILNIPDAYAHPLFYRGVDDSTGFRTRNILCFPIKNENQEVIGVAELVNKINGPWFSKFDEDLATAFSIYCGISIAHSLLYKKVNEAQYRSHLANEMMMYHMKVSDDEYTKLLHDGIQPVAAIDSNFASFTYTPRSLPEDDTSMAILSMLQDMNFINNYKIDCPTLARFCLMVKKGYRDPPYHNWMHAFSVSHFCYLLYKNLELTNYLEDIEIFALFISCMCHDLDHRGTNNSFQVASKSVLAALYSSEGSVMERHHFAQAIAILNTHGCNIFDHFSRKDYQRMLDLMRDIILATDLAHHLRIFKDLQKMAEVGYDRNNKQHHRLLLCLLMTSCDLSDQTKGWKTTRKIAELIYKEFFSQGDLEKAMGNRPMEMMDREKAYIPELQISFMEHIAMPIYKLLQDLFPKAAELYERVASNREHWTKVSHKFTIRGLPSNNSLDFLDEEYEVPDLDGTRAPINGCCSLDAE

| Ki (human PDE2A1; [1]) [nM] | Ki (human PDE2A1; [2]) [nM] | Ki (Rhesus PDE2A3; [3]) [nM] | Ki (Rhesus PDE2A3; [4]) [nM] | SMILES |
| --- | --- | --- | --- | --- |
| 2.2 | 6.3 | 3.6 | 5.5 | O=c1[nH]c(O)nc2c1c(CF)nn2C(c1ccc(C(F)(F)F)cc1)C1CC1 (stereo not shown) [Example 39, 1-(Cyclopropyl(4-(trifluoromethyl)phenyl)methyl)-3-(fluoromethyl)-6-hydroxy-1H-pyrazolo[3,4-d]pyrimidin-4(5H)-one] |
| 0.56 | 2.1 | 1.7 | 2 | CC(C)C(c1ccc(C(F)(F)F)cc1)n1nc(CF)c2c(=O)[nH]c(O)nc21 (stereo not shown) [Example 40, 3-(Fluoromethyl)-6-hydroxy-1-(2-methyl-1-(4-(trifluoromethyl)phenyl)propyl)-1H-pyrazolo[3,4-d]pyrimidin-4(5H)-one] |
|  | 9.2 |  | 11 | O=c1[nH]c(O)nc2c1c(CF)nn2C1(c2ccc(C(F)(F)F)cc2)CCC1 [Example 46, 3-(Fluoromethyl)-6-hydroxy-1-(1-(4-(trifluoromethyl)phenyl)cyclobutyl)-1H-pyrazolo[3,4-d]pyrimidin-4(5H)-one] |
|  | 5.6 |  | 6.2 | O=c1[nH]c(O)nc2c1c(CF)nn2[C@H](c1ccc(C(F)(F)F)c(F)c1)C1CC1 [Example 48, (S)-1-(Cyclopropyl(3-fluoro-4-(lrifluoromethyl)phenyl)methyl)-3-(fluoromethyl)-6-hydroxy-1H-pyrazolo[3,4-d]pyrimidin-4(5H)-one] |
|  | 7 |  | 6.8 | C[C@@H](c1ccc(S(F)(F)(F)(F)F)cc1)n1nc(CF)c2c(=O)[nH]c(O)nc21 [Example 50, (S)-3-(Fluoromethyl)-6-hydroxy-1-(1-(4-(pentafluorolhio)phenyl)ethyl)-1H-pyrazolo[3,4-d]pyrimidin-4(5H)-one] |
| 11 | 28 | 26 | 40 | Cc1ccc(C(C)n2nc(CCl)c3c(=O)[nH]c(O)nc32)cc1 (stereo not shown) [Example 57, 3-(Chloromethyl)-6-hydroxy-1-(1-p-tolylethyl)-1H-pyrazolo[3,4-d]pyrimidin-4(5H)-one] |
| 49 |  | 69 |  | Cc1nn(C(C)c2ccc(C(F)(F)F)cc2)c2nc(O)[nH]c(=O)c12 (stereo not shown) [Example 58, 6-Hydroxy-3-methyl-1-{1-[4-(trifluoromethyl)phenyl]ethyl}-1,5-dihydro-4H-pyrazolo[3,4-d]pyrimidin-4-one] |
| 760 |  | 1140 |  | COc1nc2c(c(C)nn2C(C)c2ccc(C(F)(F)F)cc2)c(=O)[nH]1 (stereo not shown) [Example 59, 6-Methoxy-3-methyl-1-{1-[4-(trifluoromethyl)phenyl]ethyl}-1,5-dihydro-4H-pyrazolo[3,4-d]pyrimidin-4-one] |
| 207 |  | 278 |  | Cc1nn(C(C)c2ccc(OC(F)(F)F)cc2)c2nc(O)[nH]c(=O)c12 (stereo not shown) [Example 60, 6-Hydroxy-3-methyl-1-{1-[4-(trifluoromethoxy)phenyl]ethyl}-1,5-dihydro-4H-pyrazolo[3,4-d]pyrimidin-4-one] |
|  | 0.55 |  | 0.57 | C[C@@H](c1ccc(C(F)(F)F)cc1)n1nc(CO)c2c(=O)[nH]c(N(C)C)nc21 [Example 154, (S)-6-(Dimethylamino)-3-(hydroxymethyl)-1-(1-(4-(trifluoromethyl)phenyl)ethyl)-1H-pyrazolo[3,4-d]pyrimidin-4(5H)-one] |
|  | 1.6 |  | 1.9 | C[C@@H](c1ccc(C(F)(F)F)cc1)n1nc(CO)c2c(=O)[nH]c(N3CC(F)C3)nc21 [Example 161, 6-(3-Fluoroazetidin-1-yl)-3-(hydroxymethyl)-1-{(1S)-1-[4-(trifluoromethyl)phenyl]ethyl}-1,5-dihydro-4H-pyrazolo[3,4-d]pyrimidin-4-one] |
| 5.6 |  | 8 |  | Cc1nn(C(C)c2ccc(C(F)(F)F)cc2)c2nc(N3CCCC3)[nH]c(=O)c12 (stereo not shown) [Example 268, 3-Methyl-6-pyrrolidin-1-yl-1-{1-[4-(trifluoromethyl)phenyl]ethyl}-1,5-dihydro-4H-pyrazolo[3,4-d]pyrimidin-4-one] |
| 85 |  | 139 |  | CNc1nc2c(c(C)nn2C(C)c2ccc(C(F)(F)F)cc2)c(=O)[nH]1 (stereo not shown) [Example 269, 3-Methyl-6-(methylamino)-1-(1-(4-(trifluoromethyl)phenyl)ethyl)-1,5-dihydro-4H-pyrazolo[3,4-d]pyrimidin-4-one] |
| 3.9 |  | 6 |  | Cc1nn(C(C)c2ccc(C(F)(F)F)cc2)c2nc(N(C)C)[nH]c(=O)c12 (stereo not shown) [Example 270, 6-(Dimethylamino)-3-methyl-1-{1-[4-(trifluoromethyl)phenyl]ethyl}-1,5-dihydro-4H-pyrazolo[3,4-d]pyrimidin-4-one] |

Second part, the compound before the results:

| SMILES | Ki (human PDE2A1; [1]) [nM] | Ki (human PDE2A1; [2]) [nM] | Ki (Rhesus PDE2A3; [3]) [nM] | Ki (Rhesus PDE2A3; [4]) [nM] |
| --- | --- | --- | --- | --- |
| CC(c1ccc(C(C)(C)C)cc1)n1nc(CO)c2c(=O)[nH]c(O)nc21 (stereo not shown) [Example 7, 1-(1-(4-tert-Butylphenyl)ethyl)-6-hydroxy-3-(hydroxymethyl)-1H-pyrazolo[3,4-d]pyrimidin-4(5H)-one] | 27 | 59 | 51 | 64 |
| O=c1[nH]c(O)nc2c1c(CO)nn2C1(c2ccc(C(F)(F)F)cc2)CCC1 [Example 26, 6-Hydroxy-3-(hydroxymethyl)-1-(1-(4-(trifluoromethyl)phenyl)cyclobutyl)-1H-pyrazolo[3,4-d]pyrimidin-4(5H)-one] |  | 39 |  | 50 |
| O=c1[nH]c(O)nc2c1c(CO)nn2C(CF)c1ccc(C(F)(F)F)cc1 (stereo not shown) [Example 33, 1-(2-Fluoro-1-(4-(trifluoromethyl)phenyl)ethyl)-6-hydroxy-3-(hydroxymethyl)-1H-pyrazolo[3,4-d]pyrimidin-4(5H)-one] |  | 71 |  | 50 |
| CC(c1ccc(OC(F)(F)F)cc1)n1nc(CF)c2c(=O)[nH]c(O)nc21 (stereo not shown) [Example 36, 3-(Fluoromethvl)-6-hydroxy-1-(1-(4-(trifluoromethoxy)phenyl)ethyl)-1H-pyrazolo[3,4-d]pyrimidin-4(5H)-one] | 6.5 | 17 | 11 | 18 |
| Cc1ccc(C(C)n2nc(CF)c3c(=O)[nH]c(O)nc32)cc1 (stereo not shown) [Example 37, 3-(Fluoromethyl)-6-hydroxy-1-(1-p-tolylethyl)-1H-pyrazolo[3,4-d]pyrimidin-4(5H)-one] | 44 |  | 85 |  |
| CC(c1ccc(OC(F)(F)F)c(F)c1)n1nc(CF)c2c(=O)[nH]c(O)nc21 (stereo not shown) [Example 38, 1-(1-(3-Fluoro-4-(trifluoromethoxy)phenyl)ethyl)-3-(fluoromethyl)-6-hydroxy-1H-pyrazolo[3,4-d]pyrimidin-4(5H)-one] | 2.8 | 8.5 | 7.2 | 8.3 |
| CC(c1ccc(C(F)(F)F)cc1)n1nc(CF)c2c(=O)[nH]c(O)nc21 (stereo not shown) [Example 41, 3-(Fluoromethyl)-6-hydroxy-1-{1-[4-(trifluoromethyl)phenyl]ethyl}-1,5-dihydro-4H-pyrazolo[3,4-d]pyrimidin-4-one] | 2.3 |  | 3.5 |  |
| C[C@@H](c1ccc(C(C)(C)C)cc1)n1nc(CF)c2c(=O)[nH]c(O)nc21 [Example 47, (S)-1-(1-(4-tert-Butylphenyl)ethyl)-3-(fluoromethyl)-6-hydroxy-1H-pyrazolo[3,4-d]pyrimidin-4(5H)-one] |  | 5.1 |  | 6.9 |
| CC(C)[C@@H](c1ccc(C(C)(C)C)cc1)n1nc(CF)c2c(=O)[nH]c(O)nc21 [Example 49, (S)-1-(1-(4-tert-Bulylphenyl)-2-melhylpropyl)-3-(fluoromethyl)-6-hydroxy-1H-pyrazolo[3,4-d]pyrimidin-4(5H)-one] |  | 2.3 |  | 2.5 |
| C[C@@H](c1ccc(C(F)(F)F)cc1)n1nc(CO)c2c(=O)[nH]c(N3CCCC3)nc21 [Example 156, 3-(Hydroxymethyl)-6-pyrrolidin-1-yl-1-{(1S)-1-[4-(trifluoromethyl)phenyl]ethyl}-1,5-dihydro-4H-pyrazolo[3,4-d]pyrimidin-4-one] |  | 0.5 |  | 0.47 |
| C[C@@H](c1ccc(C(F)(F)F)cc1)n1nc(CF)c2c(=O)[nH]c(N3CCC3)nc21 [Example 225, 6-Azetidin-1-yl-3-(fluoromethyl)-1-{(1S)-1-[4-(trifluoromethyl)phenyl]ethyl}-1,5-dihydro-4H-pyrazolo[3,4-d]pyrimidin-4-one] |  | 0.41 |  | 0.4 |
| C[C@@H](c1ccc(C(F)(F)F)cc1)n1nc(CF)c2c(=O)[nH]c(N3CCCC3)nc21 [Example 226, 3-(Fluoromethyl)-6-pyrrolidin-1-yl-1-{(1S)-1-[4-(trifluoromethyl)phenyl]ethyl}-1,5-dihydro-4H-pyrazolo[3,4-d]pyrimidin-4-one] |  | 0.22 |  | 0.26 |
| C[C@@H](c1ccc(C(F)(F)F)cc1)n1nc(CCO)c2c(=O)[nH]c(O)nc21 [Example 293, (S)-6-Hydroxy-3-(2-hydroxyethyl)-1-(1-(4-(trifluoromethyl)phenyl)ethyl)-1H-pyrazolo[3,4-d]pyrimidin-4(5H)-one] |  | 10 |  | 12 |
| C[C@@H](c1ccc(C(F)(F)F)cc1)n1nc(CC#N)c2c(=O)[nH]c(O)nc21 [Example 298, (S)-2-(6-Hydroxy-4-oxo-1-(1-(4-(trifluoromethyl)phenyl)ethyl)-4,5-dihydro-1H-pyrazolo[3,4-d]pyrimidin-3-yl)acetonitrile] |  | 4.7 |  | 5 |
| COCc1nn([C@@H](C)c2ccc(C(F)(F)F)cc2)c2nc(O)[nH]c(=O)c12 [Example 304, (S)-6-Hydroxy-3-(methoxymethyl)-1-(1-(4-(trifluoromethyl)phenyl)ethyl)-1,5-dihydro-4H-pyrazolo[3,4-d]pyrimidin-4-one] |  | 46 |  | 43 |

From patent US10174037B2, “Dihydropyrazolopyrimidinone compounds as PDE2 inhibitors” (Merck Sharp & Dohme Corp., priority 2015, dated 2019)
